In patent US20080261902A1, “Pharmaceutical composition containing polydatin and its application” (Shenzhen Neptunus Pharmaceutical Co., Ltd., priority 2005, published 2008):
In brackets after ≈: the same amount, converted by molar mass.

How the values were obtained:
[1] = test system: dogs in hemorrhagic shock; test: Treatment effect of polydatin drug compositions to dogs in hemorrhagic shock (Embodiment 20); type: in vivo, Beagle dogs; settings: for survival rate: 168 hours
[2] = test system: SD rats, shock related to skin burn; test: Treatment action for shock related to skin burn (Embodiment A8); type: in vivo; settings: 2.4 mg/kg venous injection half hour after burning; control 7.0±2.6 hours
[3] = Solubility of polydatin in alcohol-water solution and normal saline (Embodiment 13); type: physicochemical; settings: room temperature; for solubility at 8 h: thermodynamic from solid
Protocol: • 1. Materials: Anhydrous alcohol, analytically pure, Guangzhou No.2 chemical reagent factory; purified water, […] industry city; 0.9% sodium chloride injection, batch number C040514-092, Sichuan kelun pharmaceutical co., ltd. • 2. Method: Preparing alcohol water solutions having concentration of 15%, […] 30%, 40%, 50%, 60%, 70%, 80%, 90%, 95%(v/v) with anhydrous alcohol and purified water. Precisely Measuring water, anhydrous alcohol, 0.9% sodium chloride injection (normal saline) and 20 ml alcohol water solution of each above concentration, adding polydatin of proper amount respectively, treating with ultrasonic for 20 min under 40 □, supersaturating the solution, placing for 8 h under room temperature, filtering with 0.45 μm microporous membrane, wherein the filtrates are saturated solutions of polydatin in alcohol water solutions of different concentration. Adopting HPLC method to determine content of polydatin in the filtrates and calculate solubility of polydatin referring to document 20. • 3. Result: […]

[4] = test system: shock caused by bleeding in rats; settings: versus equal dose of comparators; cited from earlier work

## OCC1OC(Oc2cc(O)cc(/C=C/c3ccc(O)cc3)c2)C(O)C(O)C1O [polydatin, 3,4′,5-trihydroxy-trans stilbene-3-β-D-glucoside]
[1]; 1.8 mg/kg
  survival rate: 3 number/5
[1]; 3.0 mg/kg
  survival rate: 4 number/5
[1]; 5.0 mg/kg
  survival rate: 4 number/5
[1]; high dose 5.0 mg/kg, compared with blank control and dopamine groups
  average arterial pressure (FIG. 1): can maintain blood pressure of dogs after acute hemorrhage
[2]
  average survival period: > 13.3 h
[3]; alcohol-water solution, aqueous with cosolvent or surfactant or cyclodextrin, alcohol water solution 50%~95% (v/v)
  solubility at 8 h: > 20 mg/mL
[3]; alcohol-water solution, aqueous with cosolvent or surfactant or cyclodextrin, content of alcohol 15% (v/v) in water
  solubility at 8 h: ~1 mg/mL (≈ 2.56 mM)
[3]; alcohol-water solution, aqueous with cosolvent or surfactant or cyclodextrin, content of alcohol 30% (v/v) in water
  solubility at 8 h: ~6 mg/mL (≈ 15.4 mM)
[3]; alcohol-water solution, aqueous with cosolvent or surfactant or cyclodextrin, content of alcohol 40% (v/v) in water
  solubility at 8 h: 9.2 mg/mL (≈ 23.6 mM)
[3]; alcohol-water solution, aqueous with cosolvent or surfactant or cyclodextrin, content of alcohol 50% (v/v) in water
  solubility at 8 h: ~25 mg/mL (≈ 64 mM)
[3]; alcohol-water solution, aqueous with cosolvent or surfactant or cyclodextrin, content of alcohol 60% (v/v) in water
  solubility at 8 h: ~42 mg/mL (≈ 108 mM)
[3]; alcohol-water solution, aqueous with cosolvent or surfactant or cyclodextrin, content of alcohol 70% (v/v) in water
  solubility at 8 h: ~80 mg/mL (≈ 205 mM)
[3]; alcohol-water solution, aqueous with cosolvent or surfactant or cyclodextrin, content of alcohol 80% (v/v) in water
  solubility at 8 h: 76.8 mg/mL (≈ 197 mM)
[3]; alcohol-water solution, aqueous with cosolvent or surfactant or cyclodextrin, content of alcohol 90% (v/v) in water
  solubility at 8 h: ~75 mg/mL (≈ 192 mM)
[3]; alcohol-water solution, aqueous with cosolvent or surfactant or cyclodextrin, content of alcohol 95% (v/v) in water
  solubility at 8 h: 30.7 mg/mL (≈ 78.6 mM)
[3]; anhydrous alcohol, organic solvent or mixture, content of alcohol 100% (anhydrous alcohol)
  solubility at 8 h: ~20 mg/mL (≈ 51.2 mM)
[3]; content of alcohol 70% (v/v) in water
  solubility: 80.9 mg/mL (≈ 207 mM)
[3]; normal saline, saline or isotonic, normal saline (0.9% sodium chloride injection)
  solubility at 8 h: < 0.5 mg/mL
[3]; purified water, water, content of alcohol 0% (purified water)
  solubility at 8 h: < 0.5 mg/mL
[4]
  treatment effect to shock caused by bleeding: better than that of using an equal dose of Dopamine and Anisodamine hydrobromide
